The subject of test [1] is MDA-MB-231 cells. Description: WST-1 cell proliferation assay. The conditions noted are these: for effect on cell proliferation: concentrations as used in migration assay / various concentrations. It is filed as cell-based, human. As for the experimental part:
Cell viability was assessed using WST-1 (Water Soluble Tetrazolium salts) assay (Roche). A single cell suspension was plated in 96-well plates at 2.0×10^4 cells/well and allowed to attach to the plates at 37° C. for 2 hr. […] After the treatment, cell viability was measured by adding 10 μl of Cell Proliferation Reagent WST-1 to each well and incubated for 1 hr at 37° C. in a 5% CO2 incubator. The cell proliferation was measured at an […] wavelength of 450 nm with a Synergy HT Multi-Mode Microplate Reader (Biotek).
In general terms: Formazan colour is commonly taken as a measure of viable cells.

For test [2], the system named is MDA-MB-231 cells. Briefly: Transwell cell migration assay, MDA-MB-231. It is filed as cell-based, human. The settings on record: for effect on migration of MDA-MB-231 cells: 200 μM. As to the method:
(§1) MLO-Y4 cells were seeded onto 150 mm dishes (Corning) and incubated for 24 hr to allow attachment, after which media was removed and changed with α-modified essential medium (α-MEM) without phenol red (Gibco) supplemented with 2.5% FBS and 2.5% BCS (Hyclone). MLO-Y4 cells were incubated in the absence or present of 20 μM AD in a 5% CO2 incubator at 37° C. for 48 hr and the CM was collected.
(§2) Migration assays were performed in transwell membrane filter inserts in 24-well tissue culture plates (BD Biosciences San Jose, Calif., USA). The transwell membrane filter inserts contained 6.5-mm diameter, 8-μm pore size, […] thick polycarbonate membranes. The breast cancer cell lines were harvested and resuspended in CM from MLO-Y4 cells with or without other compounds. Five-hundred microliter breast cancer cell suspensions were added to the upper side of the inserts at a density of 10×10^4 cells/insert and 750 μl CM with or without other compounds was added to the lower wells. Cells were incubated at 37° C. for 18-20 hr. […] The number of migrated cells in 5 fields of view per insert was counted under a light microscope at magnification 10×.

Test [3] concerns Py8119 mouse mammary carcinoma cells. Description: Transwell cell migration assay, Py8119. It is filed as cell-based. As for the experimental part: as §1, §2
Test [4] concerns MDA-MB-231 cells. Description: Soft agar colony formation assay (anchorage-independent growth). It is filed as cell-based, human. The settings on record: about 2 weeks (control 82±4.5). As to the method:
For anchorage-independent cell growth, MDA-MB-231 cells were plated in 0.4% agarose with complete medium supplemented with either 100 μM ATPγS or 200 μM adenosine on top of a 0.8% agarose base supplemented with complete medium. Cells were maintained for about 2 weeks before staining with p-iodonitrotetrazolium violet (Sigma-Aldrich, St. Louis, Mo.). Images were captured by using a scanner and the numbers of colonies were counted.

Test [5] has as its system MDA-MB-231 cells. Briefly: Orthotopic MDA-MB-231 xenograft in mammary fat pads of nude mice. It is filed as in vivo, mouse. The settings on record: for tumor growth rate in comparison to the control group: 400 μmol per mouse IP three times a week. As for the experimental part:
To test if ATP has a similar, inhibitory effect on tumor growth in vivo, the inventors used an orthotopic mouse model. MDA-MB-231 cells were orthotopically implanted into the mammary fat pads of athymic female nude mice. After the mice were randomly assigned into 3 different treatment groups, the mice were treated with or without ATPγS or adenosine. The ATPγS and adenosine were administered through IP injections at 400 μmol per mouse three times a week. The control mice were injected IP with saline. Dosages were determined by a previous study showing no toxicity from IP injections of up to 50 mM of adenine nucleotides into mice for 10 days. Tumor sizes were measured once every three to four days throughout the treatment period. At the end of the study, the tumors were excised and weighed. […] The reduced mean tumor volume of the treatment group was statistically significant after 17 days of ATPγS treatment. […] Additionally, the adenosine-treated group had 50% increased tumor sizes compared to the control group tumors (FIG. 7B).
MDA-MB-231 cells were injected subcutaneously in the mammary fat pad of 4-week-old female nu/nu athymic nude mice. Each mouse received bilateral subcutaneous inoculation in both the left and right inguinal mammary fat pad areas with 100 μl of cell suspension containing ˜1×10^7 cells/ml in serum-free media. Animals were randomly assigned to 3 different groups, and solid tumors were allowed to form up to about 5 mm^3 volume before treatments began. ATPγS, at 400 μmol/500 μl saline, adenosine, at 400 μmol/500 μl saline, or 500 μl of saline, were administered intraperitoneally (IP) three times a week for 3 weeks. The growth of xenograft tumors was monitored twice a week and tumor size was measured with a caliper in two dimensions. Tumor volumes were calculated with the equation V=(L×W^2)×0.5 (mm^3), where L is length and W is width of a tumor.

Test [6] relates to Py8119 mammary carcinoma cells. Description: Intratibial injection of Py8119/Luc-GFP cells, bioluminescence imaging. It is filed as in vivo, mouse. As for the experimental part: To assess how systemic treatment with ATPγS may affect the growth of breast cancer cells in the bone microenvironment of a syngeneic host, the inventors performed intratibial injections in wild-type C57b1/6 female mice using the mouse mammary carcinoma cell line Py8119. The mammary tumor cells were injected into the right tibias of the female mice, and the tumor growth was monitored with whole animal imaging once a week for 4 weeks. The mice were treated with IP injection of saline supplemented with or without 400 μmol ATPγS three times a week. […] Quantification data (lower panels) further confirmed the significant decrease of tumor growth in bone with the treatment of ATPγS. Mice were anesthetized by isoflurane and were also given buprenorpine-HCl (0.3 mg/ml) as an analgesic. Py8119 cells expressing Luc-GFP (1×10^5 in 20 μl of PBS) were inoculated into the bone marrow area of right tibias through the pre-made hole by a Hamilton syringe fitted with a 30-gauge needle. […] Intratibial tumor growth was monitored with bioluminescence imaging with a Xenogen IVIS-Spectrum imaging system (Xenogen, Alameda, Calif., USA) every week starting from 3 days after tumor cell inoculation. […] Analysis was performed using LivingImage software (Xenogen) by measurement of photon flux (measured in photons/sec/cm^2/steradian) with a region of interest (ROI) drawn around the bioluminescence signal to be measured. […]

As for “2′(3′)-O-(4-Benzoylbenzoyl)adenosine-5′-triphosphate tri(triethylammonium) salt [BzATP]”, the “effect on cell proliferation (WST-1)” value is recorded as “significant reduction” with MDA-MB-231 cells [1] (400 μM) and “minimal effects” in the test on MDA-MB-231 cells [1] (concentrations 1-200 μM). The “number of migrating MDA-MB-231 cells” value in the test with MDA-MB-231 cells [2] (compound 10 μM) worked out at 99±7.8 cells; in the test on MDA-MB-231 cells [2] (compound 100 μM), 64±4.4 cells; in the test with MDA-MB-231 cells [2] (compound 200 μM), 39±2.6 cells.

Take `CCOc1nc2c(N)ncnc2n1CC` [ANR94, 8-Ethoxy-9-ethyl-9H-purin-6-amine]: the “effect on ATP-increased migration of MDA-MB-231 cells” value in the test with MDA-MB-231 cells [2] (100 μM ANR94, 200 μM ATP, 20 hr) is “attenuated”. Moreover, in the test with MDA-MB-231 cells [2] (100 μM ANR94, 200 μM adenosine, 20 hr), the “effect on adenosine-increased migration of MDA-MB-231 cells” value is “attenuated”.

With `CCN(CC)c1ncnc2c1ncn2[C@@H]1O[C@H](COP(=O)(O)OP(=O)(O)C(Br)(Br)P(=O)(O)O)[C@@H](O)[C@H]1O` [ARL67156], the “effect on cell proliferation” value in the test with MDA-MB-231 cells [1] is “not caused by changes in cell proliferation”. Moreover, the “effect on the stimulatory effect of higher dosage of ATP on migration” value in the test on MDA-MB-231 cells [2] (200 μM ARL67156, 200 μM ATP) is “attenuated”.

Take `Nc1ncnc2c1ncn2[C@@H]1O[C@H](COP(=O)(O)OP(=O)(O)OP(=O)(O)O)[C@@H](O)[C@H]1O` [ATP, adenosine-5′-triphosphate]: the “effect on cell proliferation” value in the test with MDA-MB-231 cells [1] is on record as “not caused by alterations of cell proliferation”. Moreover, the “number of migrated Py8119 cells” value came out at 159±7.8 cells in test [3] (400 μM ATP in CM (control 254±25.9)) and 88±10.3 cells in test [3] (400 μM ATP in CM-AD (control 127±0.3)). The “number of migrated MDA-MB-231 cells” value with MDA-MB-231 cells [2] (200 μM ATP added to CM from non-AD-treated MLO-Y4 cells (control 127±2)) is listed as 188±33.5; in the test on MDA-MB-231 cells [2] (200 μM ATP added to CM-AD (control 88±10.7)), 153±21.1. The “effect on migration of MDA-MB-231 cells” value in the test with MDA-MB-231 cells [2] (20 hr) is on record as “increased migration”. Moreover, the “number of migrating MDA-MB-231 cells” value in the test on MDA-MB-231 cells [2] (compound 50 μM) is listed as 100±17.7 cells; in the test on MDA-MB-231 cells [2] (compound 200 μM), 257±26 cells; with MDA-MB-231 cells [2] (compound 400 μM), 240±0.9 cells.

Consider `Nc1ncnc2c1ncn2[C@@H]1O[C@H](COP(=O)([O-])OP(=O)([O-])OP([O-])([O-])=S)[C@@H](O)[C@H]1O.[Li+].[Li+].[Li+].[Li+]` [ATPγS, adenosine 5′-[γ-thio]triphosphate tetralithium salt], for which, in the test with MDA-MB-231 cells [4] (100 μM ATPγS), the “colony formation of MDA-MB-231 cells in soft agar” value was found to be 47±6.2 colonies. Further, the “decrease of size of excised tumors vs control group” value in the test on MDA-MB-231 cells [5] (400 μmol ATPγS IP three times a week, post mortem) is “over 4 fold”. For the same molecule, the “tumor growth rate in comparison to the control group” value with MDA-MB-231 cells [5] is recorded as “significantly reduced”. In addition, in test [3] (100 μM ATPγS in CM / CM-AD), the “effect on migration of Py8119 cells” value is “decreased”. Besides, the “tumor growth in the tibias (bioluminescence)” value in test [6] (400 μmol ATPγS IP three times a week) was “significantly inhibited”. For the same molecule, the “tumor burden (bioluminescence signals, dorsal and ventral)” value in test [6] (400 μmol ATPγS IP, after 4 weeks of treatment) is “dramatic reduction”. In addition, in the test with MDA-MB-231 cells [2] (100 μM ATPγS in control CM (control 112±2.4)), the “number of migrated MDA-MB-231 cells” value stood at 63±9.6 cells. Further, the “number of migrating MDA-MB-231 cells” value in the test on MDA-MB-231 cells [2] (compound 50 μM) worked out at 46±9.3 cells; with MDA-MB-231 cells [2] (compound 100 μM), 33±3.3 cells; with MDA-MB-231 cells [2] (compound 200 μM) it was 11±1.7 cells; in the test on MDA-MB-231 cells [2] (compound 400 μM) it was 9±1.5 cells.

Turning to `CCCn1c(=O)c2[nH]c(-c3ccc(OCC(=O)Nc4ccc(C#N)cc4)cc3)nc2n(CCC)c1=O` [MRS1754, N-(4-Cyanophenyl)-2-[4-(2,3,6,7-tetrahydro-2,6-dioxo-1,3-dipropyl-1H-purin-8-yl)phenoxy]-acetamide], the “effect on adenosine-enhanced migration of Py8119 cells” value in test [3] is on record as “inhibited”. In addition, in the test on MDA-MB-231 cells [2] (500 nM MRS1754), the “effect on the inhibitory effect of CM-AD on cell migration” value is listed as “further augmented the inhibitory effect”. For the same molecule, the “effect on the stimulatory effect of ATP on migration” value in the test on MDA-MB-231 cells [2] (500 nM MRS1754, 200 μM ATP, in CM / CM-AD) is “attenuated”. The “effect on adenosine-induced increase of MDA-MB-231 cell migration” value in the test on MDA-MB-231 cells [2] (500 nM MRS1754, 200 μM adenosine, in CM) is “completely attenuated”. Also, the “effect on the increase of migration caused by apyrase treatment” value in the test with MDA-MB-231 cells [2] (500 nM MRS1754, apyrase 5 units/ml, in CM) was “significantly attenuated”.

Take `Nc1ncnc2c1ncn2[C@@H]1O[C@H](CO)[C@@H](O)[C@H]1O` [adenosine]: the “colony formation of MDA-MB-231 cells in soft agar” value with MDA-MB-231 cells [4] (200 μM adenosine) is on record as 132±13.7 colonies. In addition, the “increase of tumor sizes compared to control group” value in the test on MDA-MB-231 cells [5] (400 μmol adenosine IP three times a week, post mortem) turned out to be 50%. In addition, the “tumor growth rate in comparison to the control group” value in the test on MDA-MB-231 cells [5] was “increase”. The “effect on cell proliferation” value in the test with MDA-MB-231 cells [1] was “minimal effects”. Besides, the “effect on MDA-MB-231 cell migration” value in the test with MDA-MB-231 cells [2] (200 μM adenosine in CM from MLO-Y4 cells) is reported as “increased”. In the test on MDA-MB-231 cells [2] (20 hr), the “effect on migration of MDA-MB-231 cells” value is “increases”.

As to `Nc1ncnc2c1ncn2[C@@H](C=O)O[C@@H](C=O)COP(=O)(O)OP(=O)(O)OP(=O)(O)O` [oATP], in the test on MDA-MB-231 cells [2] (300 μM oATP), the “effect on the inhibitory effect of CM-AD on MDA-MB-231 cell migration” value is “significantly attenuated”.

Consider apyrase, for which the “increase of MDA-MB-231 cell migration” value with MDA-MB-231 cells [2] (apyrase 5 units/ml in CM-AD) is given as 7.7 fold; in the test with MDA-MB-231 cells [2] (apyrase 5 units/ml in untreated CM) it was 2.5 fold.

The values are drawn from US20150297623A1, “METHODS FOR TREATMENT OF PRIMARY CANCER AND CANCER METASTASIS” (THE BOARD OF REGENTS OF THE UNIVERSITY OF TEXAS SYSTEM, priority 2012, published 2015).
